Source: US7138361B2, “Herbicidal heterocycles” (E. I. du Pont de Nemours and Company, priority 2000, dated 2006)

Tests used:
Format in all cases: in vivo
[1] = test system: Sunflower; assay: Test C preemergence; settings: Rate 62 g/ha, scale 0 to 100
[2] = test system: Sunflower; assay: Test C preemergence; settings: Rate 500 g/ha, visual evaluation after 12 to 14 days
[3] = test system: woolly cupgrass (Eriochloa villosa); assay: Test C preemergence; settings: for Plant response rating (0 to 100), Cupgrass, Woolly: Rate 500 g/ha, visual evaluation after 12 to 14 days
Summary of the method: (§1)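 Pre- and postemergence treatments used a non-phytotoxic solvent/surfactant formulation; post-treated plants measured 2 to 18 cm. Greenhouse hold 12–14 d; % control estimated visually relative to controls.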

[4] = test system: pigweed (Amaranthus retroflexus); assay: Test C preemergence; settings: for Plant response rating (0 to 100), Pigweed: Rate 500 g/ha, visual evaluation after 12 to 14 days
Summary of the method: as §1

[5] = test system: Sunflower; assay: Test C preemergence; settings: Rate 125 g/ha; scale 0 to 100, 0 no effect, 100 complete control
[6] = test system: velvetleaf (Abutilon theophrasti); assay: Test C preemergence; settings: for Plant response rating (0 to 100), Velvetleaf: Rate 500 g/ha, visual evaluation after 12 to 14 days
Summary of the method: as §1

[7] = test system: Nightshade; assay: Test C preemergence; settings: Rate 500 g/ha, visual evaluation after 12 to 14 days
[8] = test system: barnyardgrass (Echinochloa crus-galli); assay: Test B preemergence
Summary of the method: (§2)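 Post-treatment, species sat 13–15 days under greenhouse conditions before visual scoring against controls, 0 (no effect) through 100 (complete control). Application preemergence to sown seeds or postemergence at 1- to 4-leaf stage, using a non-phytotoxic solvent/surfactant formulation.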

[9] = test system: corn (Zea mays); assay: Test B preemergence
Summary of the method: as §2

[10] = test system: cocklebur (Xanthium strumarium); assay: Test B preemergence
Summary of the method: as §2

[11] = test system: rice (Oryza saliva); assay: Test B preemergence
Summary of the method: as §2

[12] = test system: morning glory (Ipomoea hederacea); assay: Test B preemergence
Summary of the method: as §2

[13] = test system: Surinam grass (Brachiaria decumbens); assay: Test B preemergence
Summary of the method: as §2

[14] = test system: pigweed (Amaranthus retroflexus); assay: Test B preemergence
Summary of the method: as §2

[15] = test system: velvetleaf (Abutilon theophrasti); assay: Test B preemergence
Summary of the method: as §2

[16] = test system: crabgrass (Digitaria sanguinalis); assay: Test B preemergence
Summary of the method: as §2

[17] = test system: lambsquarters (Chenopodium album); assay: Test B preemergence
Summary of the method: as §2

[18] = test system: giant foxtail (Setaria faberii); assay: Test B preemergence
Summary of the method: as §2

[19] = test system: barnyardgrass (Echinochloa crus-galli); assay: Test C flooded paddy test; settings: for Barnyardgrass plant response rating: Flooded Paddy, Rate 500 g/ha, scale 0 to 100, 0 no effect, 100 complete control; for Plant response rating, Barnyardgrass / Plant response rating (scale 0 to 100), Barnyardgrass: flooded paddy test; for Plant response rating, Barnyardgrass: scale 0 to 100 (0 no effect, 100 complete control); for Plant response rating (scale 0 to 100), Barnyardgrass: Rate 62 g/ha, visually evaluated after 12 to 14 days, 0 = no effect, 100 = complete control
Summary of the method: (§3)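 Flooded paddy, 2-leaf stage at treatment. Readout: visual % control vs untreated, 0–100, at 12–14 d in greenhouse.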

[20] = test system: rice (Oryza saliva); assay: Test C flooded paddy test; settings: for Rice plant response rating: Flooded Paddy, Rate 500 g/ha, scale 0 to 100, 0 no effect, 100 complete control; for Plant response rating, Rice / Plant response rating (scale 0 to 100), Rice: flooded paddy test; for Plant response rating, Rice: scale 0 to 100 (0 no effect, 100 complete control); for Plant response rating (scale 0 to 100), Rice: Rate 62 g/ha, visually evaluated after 12 to 14 days, 0 = no effect, 100 = complete control
Summary of the method: as §3

[21] = test system: duck salad (Heteranthera limosa); assay: Test C flooded paddy test; settings: for Ducksalad plant response rating: Flooded Paddy, Rate 500 g/ha, scale 0 to 100, 0 no effect, 100 complete control; for Plant response rating, Ducksalad / Plant response rating (scale 0 to 100), Ducksalad: flooded paddy test; for Plant response rating, Ducksalad: scale 0 to 100 (0 no effect, 100 complete control); for Plant response rating (scale 0 to 100), Ducksalad: Rate 62 g/ha, visually evaluated after 12 to 14 days, 0 = no effect, 100 = complete control
Summary of the method: as §3

[22] = test system: smallflower flatsedge (Cyperus difformis); assay: Test C flooded paddy test; settings: for Flatsedge plant response rating: Flooded Paddy, Rate 500 g/ha, scale 0 to 100, 0 no effect, 100 complete control; for Plant response rating, Flatsedge / Plant response rating (scale 0 to 100), Flatsedge: flooded paddy test; for Plant response rating, Flatsedge: scale 0 to 100 (0 no effect, 100 complete control); for Plant response rating (scale 0 to 100), Flatsedge: Rate 62 g/ha, visually evaluated after 12 to 14 days, 0 = no effect, 100 = complete control
Summary of the method: as §3

[23] = Rate 125 g/ha, scale 0 to 100, 0 no effect, 100 complete control
[24] = preemergence, Rate 62 g/ha, scale 0 to 100
[25] = preemergence, Rate 250 g/ha, scale 0 to 100, 0 no effect, 100 complete control
[26] = Preemergence, Rate 500 g/ha, scale 0 to 100, 0 no effect, 100 complete control
[27] = preemergence, Rate 125 g/ha, scale of 0 to 100 where 0 is no effect and 100 is complete control, 13 to 15 days

## COc1cc(N2CCC(n3ccc(C(C)(C)C)n3)C2=O)ccc1Br (stereo not drawn) [Compound 141]
[1]
  Plant response rating, Sunflower: 30
[2]
  Plant response rating (0 to 100), Sunflower: 100
[3]; [23]
  Plant response rating, Cupgrass, Woolly: 100
[3]; [24]
  Plant response rating, Cupgrass, Woolly: 100
[3]; preemergence
  Plant response rating (0 to 100), Cupgrass, Woolly: 100
[3]; [25]
  Plant response rating, Cupgrass, Woolly: 100
[4]; [23]
  Plant response rating, Pigweed: 100
[4]; [24]
  Plant response rating, Pigweed: 100
[4]; preemergence
  Plant response rating (0 to 100), Pigweed: 100
[4]; [25]
  Plant response rating, Pigweed: 100
[5]
  Plant response rating, Sunflower: 40
[6]; [23]
  Plant response rating, Velvetleaf: 70
[6]; [24]
  Plant response rating, Velvetleaf: 70
[6]; preemergence
  Plant response rating (0 to 100), Velvetleaf: 100
[6]; [25]
  Plant response rating, Velvetleaf: 70
[7]
  Plant response rating (0 to 100), Nightshade: 100
[8]; [26]
  Plant response rating, Barnyardgrass: 100
[8]; [27]
  Plant response rating, Barnyardgrass: 100
[9]; [26]
  Plant response rating, Corn: 20
[9]; [27]
  Plant response rating, Corn: 0
[10]; [26]
  Plant response rating, Cocklebur: 100
[10]; [27]
  Plant response rating, Cocklebur: 70
[11]; [26]
  Plant response rating, Rice: 50
[11]; [27]
  Plant response rating, Rice: 30
[12]; [26]
  Plant response rating, Morningglory: 100
[12]; [27]
  Plant response rating, Morningglory: 90
[13]; [26]
  Plant response rating, Surinam grass: 100
[13]; [27]
  Plant response rating, Surinam grass: 100
[14]; [26]
  Plant response rating, Pigweed: 100
[14]; [27]
  Plant response rating, Pigweed: 100
[15]; [26]
  Plant response rating, Velvetleaf: 100
[15]; [27]
  Plant response rating, Velvetleaf: 70
[16]; [26]
  Plant response rating, Crabgrass: 100
[16]; [27]
  Plant response rating, Crabgrass: 100
[17]; [26]
  Plant response rating, Lambsquarters: 100
[17]; [27]
  Plant response rating, Lambsquarters: 100
[18]; [26]
  Plant response rating, Foxtail, Giant: 100
[18]; [27]
  Plant response rating, Foxtail, Giant: 100
[19]
  Barnyardgrass plant response rating: 100
  Plant response rating (scale 0 to 100), Barnyardgrass: 70
[19]; Rate 125 g/ha
  Plant response rating, Barnyardgrass: 100
[19]; Rate 250 g/ha
  Plant response rating, Barnyardgrass: 100
[20]
  Rice plant response rating: 35
  Plant response rating (scale 0 to 100), Rice: 0
[20]; Rate 125 g/ha
  Plant response rating, Rice: 25
[20]; Rate 250 g/ha
  Plant response rating, Rice: 30
[21]
  Ducksalad plant response rating: 100
  Plant response rating (scale 0 to 100), Ducksalad: 85
[21]; Rate 125 g/ha
  Plant response rating, Ducksalad: 95
[21]; Rate 250 g/ha
  Plant response rating, Ducksalad: 100
[22]
  Flatsedge plant response rating: 95
  Plant response rating (scale 0 to 100), Flatsedge: 90
[22]; Rate 125 g/ha
  Plant response rating, Flatsedge: 90
[22]; Rate 250 g/ha
  Plant response rating, Flatsedge: 95

## CCC(C)c1ccn(C2CCN(c3ccc(Br)c(OC)c3)C2=O)n1 (stereo not drawn) [Compound 142]
[1]
  Plant response rating, Sunflower: 10
[2]
  Plant response rating (0 to 100), Sunflower: 80
[3]; [23]
  Plant response rating, Cupgrass, Woolly: 100
[3]; [24]
  Plant response rating, Cupgrass, Woolly: 90
[3]; preemergence
  Plant response rating (0 to 100), Cupgrass, Woolly: 100
[3]; [25]
  Plant response rating, Cupgrass, Woolly: 100
[4]; [23]
  Plant response rating, Pigweed: 100
[4]; [24]
  Plant response rating, Pigweed: 100
[4]; preemergence
  Plant response rating (0 to 100), Pigweed: 100
[4]; [25]
  Plant response rating, Pigweed: 100
[5]
  Plant response rating, Sunflower: 20
[6]; [23]
  Plant response rating, Velvetleaf: 90
[6]; [24]
  Plant response rating, Velvetleaf: 10
[6]; preemergence
  Plant response rating (0 to 100), Velvetleaf: 100
[6]; [25]
  Plant response rating, Velvetleaf: 100
[7]
  Plant response rating (0 to 100), Nightshade: 100
[8]; [26]
  Plant response rating, Barnyardgrass: 100
[8]; [27]
  Plant response rating, Barnyardgrass: 100
[9]; [26]
  Plant response rating, Corn: 20
[9]; [27]
  Plant response rating, Corn: 0
[10]; [26]
  Plant response rating, Cocklebur: 60
[10]; [27]
  Plant response rating, Cocklebur: 0
[11]; [26]
  Plant response rating, Rice: 40
[11]; [27]
  Plant response rating, Rice: 20
[12]; [26]
  Plant response rating, Morningglory: 50
[12]; [27]
  Plant response rating, Morningglory: 20
[13]; [26]
  Plant response rating, Surinam grass: 100
[13]; [27]
  Plant response rating, Surinam grass: 100
[14]; [26]
  Plant response rating, Pigweed: 100
[14]; [27]
  Plant response rating, Pigweed: 100
[15]; [26]
  Plant response rating, Velvetleaf: 90
[15]; [27]
  Plant response rating, Velvetleaf: 20
[16]; [26]
  Plant response rating, Crabgrass: 100
[16]; [27]
  Plant response rating, Crabgrass: 100
[17]; [26]
  Plant response rating, Lambsquarters: 100
[17]; [27]
  Plant response rating, Lambsquarters: 100
[18]; [26]
  Plant response rating, Foxtail, Giant: 100
[18]; [27]
  Plant response rating, Foxtail, Giant: 100
[19]
  Barnyardgrass plant response rating: 100
  Plant response rating (scale 0 to 100), Barnyardgrass: 80
[19]; Rate 125 g/ha
  Plant response rating, Barnyardgrass: 100
[19]; Rate 250 g/ha
  Plant response rating, Barnyardgrass: 100
[20]
  Rice plant response rating: 55
  Plant response rating (scale 0 to 100), Rice: 0
[20]; Rate 125 g/ha
  Plant response rating, Rice: 25
[20]; Rate 250 g/ha
  Plant response rating, Rice: 45
[21]
  Ducksalad plant response rating: 100
  Plant response rating (scale 0 to 100), Ducksalad: 30
[21]; Rate 125 g/ha
  Plant response rating, Ducksalad: 90
[21]; Rate 250 g/ha
  Plant response rating, Ducksalad: 100
[22]
  Flatsedge plant response rating: 95
  Plant response rating (scale 0 to 100), Flatsedge: 95
[22]; Rate 125 g/ha
  Plant response rating, Flatsedge: 95
[22]; Rate 250 g/ha
  Plant response rating, Flatsedge: 95
